Measurements reported in US11767310B2, “Nicotinamide RIPK1 inhibitors” (AbbVie Inc., priority 2021, dated 2023).
Marks after values point to notes of the source that are not given here.

Experiments:
[1] = Prodrug bioconversion in intestinal S9 cell fractions; assay type: in vitro ADME
Description: (§1) Phosphatase enzymes are […] expressed with unique tissue specific isoforms and are key catalysts in the conversion of phosphate-containing prodrugs. To determine if exemplary phosphate prodrug compounds of the invention are enzymatically converted to the parent molecule across relevant species, the prodrug compounds were incubated with intestinal S9 cell fractions obtained from mouse, rat, dog, monkey, and human.
[…] Incubations were conducted in the absence and presence of 1 mM sodium orthovanadate, a phosphatase inhibitor. Prodrug depletion and parent formation were monitored by LC-MS/MS and normalized to internal standard as the analyte peak area ratio.

[2] = as above; assay type: in vitro ADME; conditions: 0.25 mg/mL
Description: as §1
Phosphate prodrugs were incubated (1 μM) for up to 2 hours in Tris-Cl buffer (pH 7.4) containing 3 mM magnesium chloride, intestinal S9 protein ([…] (ms, rat, hu, Table F) from mouse, rat, dog, monkey or human. Incubations were conducted in the absence and presence of 1 mM sodium orthovanadate, a phosphatase inhibitor. Prodrug depletion and parent formation were monitored by LC-MS/MS and normalized to internal standard as the analyte peak area ratio.

U937 cells = assay: U937 TNF/zVAD Cytotoxicity Cell Assay; assay type: cell-based; conditions: Homo sapiens, U-937; TNFα 10 ng/mL + Z-VAD FMK 20 μM, 16-20 hours; read-out: U937 TNF/zVAD Induced Cytotoxicity IC50
Description: Compounds were tested for their ability to prevent TNF induced necroptosis in U937 cells. Treatment with TNF and the caspase inhibitor zVAD-FMK results in the activation and phosphorylation of RIPK1 and subsequent phosphorylation of RIPK3 and MLKL (Mixed Lineage Kinase Domain Like Pseudokinase), leading to induction of necroptotic cell death that is measured as a reduction in cell viability. Similar U937 assay protocols have been previously described; see, e.g., Harris et al., ACS Med. Chem. Letters (2013) 4:1238-1243 and Supplementary Information.
Test compounds were solvated in dimethyl sulfoxide (DMSO) and 3-fold serially diluted from 10 uM to 0.0005 uM with technical duplicates into an empty 384 well plate. U937 cells were resuspended at a concentration of 500,000 cells/mL in fresh RPMI (Roswell Park Memorial Institute) 1640 growth medium containing 10% heat inactivated fetal bovine serum (FB1S) and seeded into a 384 well plate containing compounds and incubated for 1 hour at 37° C. Following incubation, the cells were challenged with TNFα (final concentration of 10 ng/mL) and Z-VAD FMK (N-Benzyloxycarbonyl-Val-Ala-Asp(O-Me) fluoromethyl ketone; final concentration of 20 μM) for 16-20 hours at 37° C. Following the incubation with TNFα/Z-VAD, cells were lysed with Cell Titer-Glo and incubated for 5-10 minutes. The plate was then read on an Envision plate reader. Data was normalized and analyzed with Studies from Dotmatics.

[3] = Human, 0.01 mg/mL S9 protein, Table F
[4] = Human, 0.25 mg/mL S9 protein, Table F
[5] = Human, 0.25 mg/mL, Experiment 1
[6] = Human, 0.25 mg/mL, Experiment 2
[7] = Human, 0.25 mg/mL, Experiment 3
[8] = Human, 0.25 mg/mL, Mean of 3 experiments
[9] = Mouse, 0.01 mg/mL S9 protein, Table F
[10] = Mouse, 0.25 mg/mL S9 protein, Table F
[11] = Mouse, 0.25 mg/mL, Experiment 1
[12] = Mouse, 0.25 mg/mL, Experiment 2
[13] = Mouse, 0.25 mg/mL, Experiment 3
[14] = Mouse, 0.25 mg/mL, Mean of 3 experiments
[15] = Rat, 0.01 mg/mL S9 protein, Table F
[16] = Rat, 0.25 mg/mL S9 protein, Table F
[17] = Rat, 0.25 mg/mL, Mean of 3 experiments

Compound | Clint (prodrug disappearance) [1, 3] | Clint (prodrug disappearance) [1, 4] | Clint (prodrug disappearance) [1, 5] | Clint (prodrug disappearance) [1, 6] | Clint (prodrug disappearance) [1, 7] | Clint (prodrug disappearance) [1, 8] | Clint (prodrug disappearance) [1, 9] | Clint (prodrug disappearance) [1, 10] | Clint (prodrug disappearance) [1, 11] | Clint (prodrug disappearance) [1, 12] | Clint (prodrug disappearance) [1, 13] | Clint (prodrug disappearance) [1, 14] | Clint (prodrug disappearance) [1, 15] | Clint (prodrug disappearance) [1, 16] | Clint (prodrug disappearance) ([1]; Rat, 0.25 mg/mL, Experiment 1) | Clint (prodrug disappearance) ([1]; Rat, 0.25 mg/mL, Experiment 2) | Clint (prodrug disappearance) ([1]; Rat, 0.25 mg/mL, Experiment 3) | Clint (prodrug disappearance) [1, 17] | Clint (prodrug disappearance) ([2]; Dog, Experiment 1) | Clint (prodrug disappearance) ([2]; Dog, Experiment 2) | further results
CN(C[C@H](Cc1ccccc1)OC(=O)CN)C(=O)c1cncc(C#Cc2cnn(C(F)F)c2)c1 [Example 21, (S)-1-(5-((1-(difluoromethyl)-1H-pyrazol-4-yl)ethynyl)-N-methylnicotinamido)-3-phenylpropan-2-yl 2-aminoacetate, hydrochloric acid] | 815.9 μL/min/mg intestinal S9 protein | 592.9 μL/min/mg intestinal S9 protein | 391 μL/min/mg intestinal S9 protein | 400 μL/min/mg intestinal S9 protein | 355 μL/min/mg intestinal S9 protein | 382 μL/min/mg intestinal S9 protein | 11160 μL/min/mg intestinal S9 protein | >4166.5* μL/min/mg intestinal S9 protein | >480* μL/min/mg intestinal S9 protein | >480* μL/min/mg intestinal S9 protein | >480* μL/min/mg intestinal S9 protein | >480* μL/min/mg intestinal S9 protein | 2599.5 μL/min/mg intestinal S9 protein | 901.6 μL/min/mg intestinal S9 protein | 396 μL/min/mg intestinal S9 protein | 719 μL/min/mg intestinal S9 protein | 750 μL/min/mg intestinal S9 protein | 622 μL/min/mg intestinal S9 protein | 5.62 μL/min/mg intestinal S9 protein | 16.1 μL/min/mg intestinal S9 protein | Clint (prodrug disappearance) ([2]; Dog, Experiment 3): 14.3 μL/min/mg intestinal S9 protein; Clint (prodrug disappearance) ([2]; Dog, Mean of 3 experiments): 12.0 μL/min/mg intestinal S9 protein; Clint (prodrug disappearance) ([2]; Monkey, Experiment 1): 89.6 μL/min/mg intestinal S9 protein; Clint (prodrug disappearance) ([2]; Monkey, Experiment 2): 91.3 μL/min/mg intestinal S9 protein; Clint (prodrug disappearance) ([2]; Monkey, Experiment 3): 90.7 μL/min/mg intestinal S9 protein; Clint (prodrug disappearance) ([2]; Monkey, Mean of 3 experiments): 90.5 μL/min/mg intestinal S9 protein
Cc1ncc(C(=O)N(C)C[C@@H](O)Cc2ccccc2)cc1C#Cc1cnn(C)c1 [Example 14, (S)-N-(2-hydroxy-3-phenylpropyl)-N,6-dimethyl-5-((1-methyl-1H-pyrazol-4-yl)ethynyl)nicotinamide] |  |  |  |  |  |  |  |  |  |  |  |  |  |  |  |  |  |  |  |  | IC50 (U937 cells): 18 nM
CN(C[C@H](Cc1ccccc1)OP(=O)(O)O)C(=O)c1cncc(C#Cc2cnn(C)n2)c1 [Example 23, (S)-1-(N-methyl-5-((2-methyl-2H-1,2,3-triazol-4-yl)ethynyl)nicotinamido)-3-phenylpropan-2-yl dihydrogen phosphate] | 1180.2 μL/min/mg intestinal S9 protein | 243.4 μL/min/mg intestinal S9 protein | 199 μL/min/mg intestinal S9 protein | 241 μL/min/mg intestinal S9 protein | 203 μL/min/mg intestinal S9 protein | 214 μL/min/mg intestinal S9 protein | <137** μL/min/mg intestinal S9 protein | 23.3 μL/min/mg intestinal S9 protein | 26.2 μL/min/mg intestinal S9 protein | 34.3 μL/min/mg intestinal S9 protein | 31.3 μL/min/mg intestinal S9 protein | 30.6 μL/min/mg intestinal S9 protein | <137** μL/min/mg intestinal S9 protein | 36.7 μL/min/mg intestinal S9 protein | 29.1 μL/min/mg intestinal S9 protein | 33.8 μL/min/mg intestinal S9 protein | 28.2 μL/min/mg intestinal S9 protein | 30.4 μL/min/mg intestinal S9 protein | 354 μL/min/mg intestinal S9 protein | 369 μL/min/mg intestinal S9 protein | Clint (prodrug disappearance) ([2]; Dog, Experiment 3): 345 μL/min/mg intestinal S9 protein; Clint (prodrug disappearance) ([2]; Dog, Mean of 3 experiments): 356 μL/min/mg intestinal S9 protein; Clint (prodrug disappearance) ([2]; Monkey, Experiment 1): 55.4 μL/min/mg intestinal S9 protein; Clint (prodrug disappearance) ([2]; Monkey, Experiment 2): 47.7 μL/min/mg intestinal S9 protein; Clint (prodrug disappearance) ([2]; Monkey, Experiment 3): 48.1 μL/min/mg intestinal S9 protein; Clint (prodrug disappearance) ([2]; Monkey, Mean of 3 experiments): 50.4 μL/min/mg intestinal S9 protein
Cc1ncc(C(=O)NC[C@@H](O)Cc2ccccc2)cc1C#Cc1cncs1 [Example 16, (S)-N-(2-hydroxy-3-phenylpropyl)-6-methyl-5-(thiazol-5-ylethynyl)nicotinamide] |  |  |  |  |  |  |  |  |  |  |  |  |  |  |  |  |  |  |  |  | IC50 (U937 cells): 2580 nM
CN(C[C@@H](O)Cc1ccccc1)C(=O)c1cncc(C#Cc2cnn(C)c2)c1 [Example 1, (S)-N-(2-hydroxy-3-phenylpropyl)-N-methyl-5-((1-methyl-1H-pyrazol-4-yl)ethynyl)nicotinamide] |  |  |  |  |  |  |  |  |  |  |  |  |  |  |  |  |  |  |  |  | IC50 (U937 cells): 34 nM
CN(C[C@H](Cc1ccccc1)OC(=O)CN)C(=O)c1cncc(C#Cc2cnn(C)n2)c1 [Example 25, (S)-1-(N-methyl-5-((2-methyl-2H-1,2,3-triazol-4-yl)ethynyl)nicotinamido)-3-phenylpropan-2-yl 2-aminoacetate, hydrochloric acid] | 378.1 μL/min/mg intestinal S9 protein | 410 μL/min/mg intestinal S9 protein | 272 μL/min/mg intestinal S9 protein | 294 μL/min/mg intestinal S9 protein | 293 μL/min/mg intestinal S9 protein | 286 μL/min/mg intestinal S9 protein | 6821.9 μL/min/mg intestinal S9 protein | >1640.7* μL/min/mg intestinal S9 protein | >480* μL/min/mg intestinal S9 protein | >480* μL/min/mg intestinal S9 protein | >480* μL/min/mg intestinal S9 protein | >480* μL/min/mg intestinal S9 protein | 1087.6 μL/min/mg intestinal S9 protein | 393.8 μL/min/mg intestinal S9 protein | 217 μL/min/mg intestinal S9 protein | 318 μL/min/mg intestinal S9 protein | 299 μL/min/mg intestinal S9 protein | 278 μL/min/mg intestinal S9 protein | 10.2 μL/min/mg intestinal S9 protein | 14.4 μL/min/mg intestinal S9 protein | Clint (prodrug disappearance) ([2]; Dog, Experiment 3): 11.5 μL/min/mg intestinal S9 protein; Clint (prodrug disappearance) ([2]; Dog, Mean of 3 experiments): 12.0 μL/min/mg intestinal S9 protein; Clint (prodrug disappearance) ([2]; Monkey, Experiment 1): 38.1 μL/min/mg intestinal S9 protein; Clint (prodrug disappearance) ([2]; Monkey, Experiment 2): 49.0 μL/min/mg intestinal S9 protein; Clint (prodrug disappearance) ([2]; Monkey, Experiment 3): 40.7 μL/min/mg intestinal S9 protein; Clint (prodrug disappearance) ([2]; Monkey, Mean of 3 experiments): 42.6 μL/min/mg intestinal S9 protein
